Results: patent US20160002248A1, “GLS1 INHIBITORS FOR TREATING DISEASE” (Board of Regents, The University of Texas System, priority 2014, published 2016)

Legend:
[1] = test system: A549 cells; experiment: Proliferation Assay (A549 cell viability, Cell Titer Fluor); format: cell-based; settings: Homo sapiens, 72 hours
Method in brief: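 A549 cells in RPMI 1640 with 10% dialyzed FBS were seeded at 1000 cells/well, grown 24 h, then exposed to compound (0.5% DMSO final) for 72 h at 37 °C, 5% CO2. Viability was read by Cell Titer Fluor fluorescence; EC50 from four-parameter logistic fit.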

[2] = target: T1, purified recombinant human GAC (GLS1) (Homo sapiens, UniProt O94925); experiment: GLS1 Enzymatic Activity Assay (dual-coupled enzymatic assay); format: biochemical
T1 sequence (O94925 55-598 isoform O94925-3 limits assumed): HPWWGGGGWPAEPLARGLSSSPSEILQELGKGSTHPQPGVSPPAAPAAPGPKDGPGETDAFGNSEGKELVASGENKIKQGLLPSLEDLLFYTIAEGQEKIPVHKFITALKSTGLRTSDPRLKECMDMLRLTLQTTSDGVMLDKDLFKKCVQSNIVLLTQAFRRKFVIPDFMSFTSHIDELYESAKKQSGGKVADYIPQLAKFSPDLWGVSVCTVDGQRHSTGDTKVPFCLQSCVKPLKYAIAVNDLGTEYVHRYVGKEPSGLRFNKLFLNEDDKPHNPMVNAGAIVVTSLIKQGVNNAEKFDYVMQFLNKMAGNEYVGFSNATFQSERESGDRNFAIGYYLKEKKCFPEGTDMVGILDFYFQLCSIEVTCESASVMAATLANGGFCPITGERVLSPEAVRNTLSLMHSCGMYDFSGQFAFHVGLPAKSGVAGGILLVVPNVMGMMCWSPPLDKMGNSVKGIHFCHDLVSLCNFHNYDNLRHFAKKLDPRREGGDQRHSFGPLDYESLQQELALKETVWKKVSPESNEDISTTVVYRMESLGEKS
Method in brief: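 Recombinant human GAC (2 nM) preincubated with 50 mM potassium phosphate, then inhibitor (10 min each, RT); 1 mM glutamine, pH 7.4 Hepes buffer, 1% DMSO. Glutamate coupled via glutamate oxidase/HRP to resorufin (Ex 530/Em 590), kinetic or 20-min endpoint; IC50 by four-parameter logistic fit.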

| SMILES | EC50 [1] [nM] | IC50 [2] [nM] |
| --- | --- | --- |
| Cc1ccc(CNC(=O)c2cn(CCCCc3cc4c(F)c(C5CC5)[nH]c4nn3)nn2)cn1 [Example 90, 1-(4-(6-cyclopropyl-5-fluoro-7H-pyrrolo[2,3-c]pyridazin-3-yl)butyl)-N-((6-methylpyridin-3-yl)methyl)-1H-1,2,3-triazole-4-carboxamide 2,2,2-trifluoroacetate] | 500 to 5000 | < 100 |
| Cc1ccc(CNC(=O)c2cn(CCCCc3cc4c(I)c(C5CC5)[nH]c4nn3)nn2)cn1 [Example 91, 1-(4-{6-cyclopropyl-5-iodo-7H-pyrrolo[2,3-c]pyridazin-3-yl}butyl)-N-[(6-methylpyridin-3-yl)methyl]-1H-1,2,3-triazole-4-carboxamide] | 100 to 500 | < 100 |
| Cc1ccc(CNC(=O)c2cn(CCCCc3cc4cc(Cc5ccccc5)[nH]c4nn3)nn2)cn1 [Example 92, 1-(4-{6-benzyl-7H-pyrrolo[2,3-c]pyridazin-3-yl}butyl)-N-[(6-methylpyridin-3-yl)methyl]-1H-1,2,3-triazole-4-carboxamide] | 100 to 500 | < 100 |
| CC(C)(C)OC(=O)NCc1cccc(CNC(=O)c2cn(CCCCc3cc4cc(C5CC5)[nH]c4nn3)nn2)c1 [Example 93, tert-butyl N-{[3-({[1-(4-{6-cyclopropyl-7H-pyrrolo[2,3-c]pyridazin-3-yl}butyl)-1H-1,2,3-triazol-4-yl]formamido}methyl)phenyl]methyl}carbamate] | < 100 | < 100 |
| Cc1ccc(CNC(=O)c2cn(CCCCc3cc4cc(C5CN(C(=O)OC(C)(C)C)C5)[nH]c4nn3)nn2)cn1 [Example 94, tert-butyl 3-{3-[4-(4-{[(6-methylpyridin-3-yl)methyl]carbamoyl}-1H-1,2,3-triazol-1-yl)butyl]-7H-pyrrolo[2,3-c]pyridazin-6-yl}azetidine-1-carboxylate] | 100 to 500 | < 100 |
| Cc1ccc(CNC(=O)c2cn(CCCCc3cc4cc(C5CCN(C(=O)OC(C)(C)C)CC5)[nH]c4nn3)nn2)cn1 [Example 95, ten-butyl 4-{3-[4-(4-{[(6-methylpyridin-3-yl)methyl]carbamoyl}-1H-1,2,3-triazol-1-yl)butyl]-7H-pyrrolo[2,3-c]pyridazin-6-yl}piperidine-1-carboxylate] | 100 to 500 | < 100 |
| Cc1ccc(CNC(=O)c2cn(CCCCc3cc4c(C5CC5)c(C5CC5)[nH]c4nn3)nn2)cn1 [Example 96, 1-(4-(5,6-dicyclopropyl-7H-pyrrolo[2,3-c]pyridazin-3-yl)butyl)-N-((6-methylpyridin-3-yl)methyl)-1H-1,2,3-triazole-4-carboxamide] | 100 to 500 | < 100 |
| Cc1ccc(CNC(=O)c2cn(CCCCc3cc4cc(C5CNC5)[nH]c4nn3)nn2)cn1 [Example 97, 1-{4-[6-(azetidin-3-yl)-7H-pyrrolo[2,3-c]pyridazin-3-yl]butyl}-N-[(6-methylpyridin-3-yl)methyl]-1H-1,2,3-triazole-4-carboxamide] | 500 to 5000 | 100 to 500 |
| Cc1ccc(CNC(=O)c2cn(CCCCc3cc4cc(C5CCNCC5)[nH]c4nn3)nn2)cn1 [Example 98, N-[(6-methylpyridin-3-yl)methyl]-1-{4-[6-(piperidin-4-yl)-7H-pyrrolo[2,3-c]pyridazin-3-yl]butyl}-1H-1,2,3-triazole-4-carboxamide] | > 5000 | 500 to 5000 |
| Cc1ccc(CNC(=O)c2cn(CCCCc3cc4cc(C5CCOCC5)[nH]c4nn3)nn2)cn1 [Example 99, N-[(6-methylpyridin-3-yl)methyl]-1-{4-[6-(oxan-4-yl)-7H-pyrrolo[2,3-c]pyridazin-3-yl]butyl}-1H-1,2,3-triazole-4-carboxamide] | 500 to 5000 | 100 to 500 |
| Cc1ccc(CNC(=O)c2cn(CCCCc3cc4c(CCc5ccccc5)c(C5CC5)[nH]c4nn3)nn2)cn1 [Example 100, 1-{4-[6-cyclopropyl-5-(2-phenylethyl)-7H-pyrrolo[2,3-c]pyridazin-3-yl]butyl}-N-[(6-methylpyridin-3-yl)methyl]-1H-1,2,3-triazole-4-carboxamide] | 100 to 500 | < 100 |
| O=C(NCc1ccccn1)c1cn(CCCCc2cc3c(Cc4ccc5ccccc5c4)c(C4CC4)[nH]c3nn2)nn1 [Example 101, 1-{4-[6-cyclopropyl-5-(naphthalen-2-ylmethyl)-7H-pyrrolo[2,3-c]pyridazin-3-yl]butyl}-N-(pyridin-2-ylmethyl)-1H-1,2,3-triazole-4-carboxamide] | 100 to 500 | < 100 |
| O=C(NCc1ccccn1)c1cn(CCCCc2cc3c(Cc4ccccc4)c(C4CC4)[nH]c3nn2)nn1 [Example 102, 1-(4-{5-benzyl-6-cyclopropyl-7H-pyrrolo[2,3-c]pyridazin-3-yl}butyl)-N-(pyridin-2-ylmethyl)-1H-1,2,3-triazole-4-carboxamide] | 500 to 5000 | < 100 |
| N#Cc1cccc(Cc2c(C3CC3)[nH]c3nnc(CCCCn4cc(C(=O)NCc5ccccn5)nn4)cc23)c1 [Example 103, 1-(4-{5-[(3-cyanophenyl)methyl]-6-cyclopropyl-7H-pyrrolo[2,3-c]pyridazin-3-yl}butyl)-N-(pyridin-2-ylmethyl)-1H-1,2,3-triazole-4-carboxamide] | 500 to 5000 | < 100 |
| O=C(NCc1ccccn1)c1cn(CCCCc2cc3c(Cc4ccccc4F)c(C4CC4)[nH]c3nn2)nn1 [Example 104, 1-(4-{6-cyclopropyl-5-[(2-fluorophenyl)methyl]-7H-pyrrolo[2,3-c]pyridazin-3-yl}butyl)-N-(pyridin-2-ylmethyl)-1H-1,2,3-triazole-4-carboxamide] | 500 to 5000 | < 100 |
| CC(C)(C)OC(=O)N1CC(c2cc3cc(CCCCn4cc(C(=O)NCc5cccc(OC(F)(F)F)c5)nn4)nnc3[nH]2)C1 [Example 105, tert-butyl 3-(3-{4-[4-({[3-(trifluoromethoxy)phenyl]methyl}carbamoyl)-1H-1,2,3-triazol-1-yl]butyl}-7H-pyrrolo[2,3-c]pyridazin-6-yl)azetidine-1-carboxylate] | < 100 | < 100 |
| O=C(NCc1ccccn1)c1cn(CCCCc2cc3c(Cc4ccc(Cl)cc4)c(C4CC4)[nH]c3nn2)nn1 [Example 106, 1-(4-{5-[(4-chlorophenyl)methyl]-6-cyclopropyl-7H-pyrrolo[2,3-c]pyridazin-3-yl}butyl)-N-(pyridin-2-ylmethyl)-1H-1,2,3-triazole-4-carboxamide] | 100 to 500 | < 100 |
| O=C(NCc1cccc(OC(F)(F)F)c1)c1cn(CCCCc2cc3cc(C4CNC4)[nH]c3nn2)nn1 [Example 107, 1-{4-[6-(azetidin-3-yl)-7H-pyrrolo[2,3-c]pyridazin-3-yl]butyl}-N-{[3-(trifluoromethoxy)phenyl]methyl}-1H-1,2,3-triazole-4-carboxamide] | 500 to 5000 | 100 to 500 |
| O=C(NCc1ccccn1)c1cn(CCCCc2cc3c(-c4ccccc4)c(C4CC4)[nH]c3nn2)nn1 [Example 108, 1-(4-{6-cyclopropyl-5-phenyl-7H-pyrrolo[2,3-c]pyridazin-3-yl}butyl)-N-(pyridin-2-ylmethyl)-1H-1,2,3-triazole-4-carboxamide] | 100 to 500 | < 100 |
| Cc1c(C2CC2)[nH]c2nnc(CCCCn3cc(C(=O)NCc4ccccn4)nn3)cc12 [Example 109, 1-(4-(6-cyclopropyl-5-methyl-7H-pyrrolo[2,3-c]pyridazin-3-yl)butyl)-N-(pyridin-2-ylmethyl)-1H-1,2,3-triazole-4-carboxamide] | 500 to 5000 | 100 to 500 |
| CC(C)Cc1c(C2CC2)[nH]c2nnc(CCCCn3cc(C(=O)NCc4ccccn4)nn3)cc12 [Example 110, 1-{4-[6-cyclopropyl-5-(2-methylpropyl)-7H-pyrrolo[2,3-c]pyridazin-3-yl]butyl}-N-(pyridin-2-ylmethyl)-1H-1,2,3-triazole-4-carboxamide] | 100 to 500 | < 100 |
| CC(C)(C)OC(=O)N1CC(c2cc3cc(CCCCn4cc(C(=O)NCc5cc(OC(F)(F)F)ccc5F)nn4)nnc3[nH]2)C1 [Example 111, tert-butyl 3-(3-(4-(4-((2-fluoro-5-(trifluoromethoxy)benzyl)carbamoyl)-1H-1,2,3-triazol-1-yl)butyl)-7H-pyrrolo[2,3-c]pyridazin-6-yl)azetidine-1-carboxylate] | < 100 | < 100 |
| Cc1ccc(CNC(=O)c2cn(CCCCc3cc4c(C#N)c(C5CC5)[nH]c4nn3)nn2)cn1 [Example 112, 1-(4-{5-cyano-6-cyclopropyl-7H-pyrrolo[2,3-c]pyridazin-3-yl}butyl)-N-[(6-methylpyridin-3-yl)methyl]-1H-1,2,3-triazole-4-carboxamide] | 500 to 5000 | < 100 |
| O=C(NCc1ccccn1)c1cn(CCCCc2cc3c(-c4ccncc4)c(C4CC4)[nH]c3nn2)nn1 [Example 113, 1-{4-[6-cyclopropyl-5-(pyridin-4-yl)-7H-pyrrolo[2,3-c]pyridazin-3-yl]butyl}-N-(pyridin-2-ylmethyl)-1H-1,2,3-triazole-4-carboxamide] | 500 to 5000 | < 100 |
